According to patent US20250171417A1, “HETEROCYCLIC DERIVATIVE, AND COMPOSITION AND PHARMACEUTICAL USE THEREOF” (Xizang Haisco Pharmaceutical Co., Ltd., priority 2021, published 2025):

How the values were obtained:
[1] = Pharmacokinetic test in rats; assay type: in vivo; conditions: rat, plasma, po, male SD rats; for bioavailability: i.g. 5 mg/kg vs intravenous 2 mg/kg; for AUC(0-t): i.g. 5 mg/kg
Procedure: Test objective: In this experiment, a single dose of each test compound was administered to SD rats intravenously and intragastrically, and the concentrations of the test compounds in plasma of rats were measured to evaluate the pharmacokinetic characteristics of the test compounds in rats.
Experimental animals: male SD rats, 200-250 g, 6-8 weeks old, 6 rats/compound, purchased from Chengdu Ddossy Experimental Animals Co., Ltd.
Experimental method: on the day of the test, 6 SD rats were randomly grouped according to their body weight; the animals were fasted with water available for 12 to 14 hours one day before the administration of a test compound, and were fed 4 hours after the administration.
Sampling: Before and after the administration, 0.1 mL of blood samples were drawn from the orbits of the animals under isoflurane anesthesia, and placed in an EDTAK2 centrifuge tube. Centrifugation was carried out at 5000 rpm at 4° C. for 10 min, and the plasma was collected.
Time points for plasma collection in IV&PO group: 0, 5 min, 15 min, 30 min, 1 h, 2 h, 4 h, 6 h, 8 h, and 24 h.
Before analysis and detection, all samples were stored at −60° C. The samples were analyzed quantitatively by LC-MS/MS.

Full-length AR (AR-FL) = assay: Degradation experiment on full-length AR (AR-FL) in 22RV1 cells; assay type: cell-based; conditions: 2 μM, 24 h
Procedure: (§1) Prostate cancer cells 22RV1 were purchased from ATCC, the cell medium was 1640+10% FBS, and the cells were cultured in an incubator at 37° C. under 5% CO2. On day 1, the cells in an exponential phase were collected. With a 1% css-FBS phenol red-free medium, the cell suspension was adjusted to a corresponding concentration and plated into a 6-well plate at 1 mL/well and 100000 cells/well. The next day, a 1% css-FBS phenol-free medium containing the compound to be tested was added, a 1% css-FBS phenol-free medium containing 0.2% DMSO was added to one well as DMSO vehicle control, and the 6-well plate was cultured in an incubator at 37° C. under 5% CO2. After 24 h, the cells were digested with pancreatin and collected into a 1.5 mL centrifuge tube. […] The supernatant protein samples were collected, and protein quantification was performed by a BCA method. AR-FL and AR-Vs were detected using fully automatic protein expression quantitative analysis, which involved diluting the protein to be tested to 1 mg/mL, 4 μL of the diluted protein samples were added to 1 μL of […] (provided in the kit), and the prepared samples were denatured at 95° C. for 5 min and placed on ice for use. […] The prepared reagents were successively added to an assay plate according to instructions of the kit and detected on an instrument. […]

[2] = tested on: AR splice variants (AR-Vs); assay: Degradation experiment on AR splice variants (AR-Vs) in 22RV1 cells; assay type: cell-based; conditions: 2 μM, 24 h
Procedure: as §1

[3] = molecular target: T1, AR splice variant 7 (AR-V7) (Homo sapiens, UniProt P10275); assay: Degradation experiment on AR splice variant 7 (AR-V7) in 22RV1 cells; assay type: cell-based; conditions: 24 h
T1 construct: host or cells: 22RV1 prostate cancer cells
T1 sequence (P10275 1-644 isoform P10275-3): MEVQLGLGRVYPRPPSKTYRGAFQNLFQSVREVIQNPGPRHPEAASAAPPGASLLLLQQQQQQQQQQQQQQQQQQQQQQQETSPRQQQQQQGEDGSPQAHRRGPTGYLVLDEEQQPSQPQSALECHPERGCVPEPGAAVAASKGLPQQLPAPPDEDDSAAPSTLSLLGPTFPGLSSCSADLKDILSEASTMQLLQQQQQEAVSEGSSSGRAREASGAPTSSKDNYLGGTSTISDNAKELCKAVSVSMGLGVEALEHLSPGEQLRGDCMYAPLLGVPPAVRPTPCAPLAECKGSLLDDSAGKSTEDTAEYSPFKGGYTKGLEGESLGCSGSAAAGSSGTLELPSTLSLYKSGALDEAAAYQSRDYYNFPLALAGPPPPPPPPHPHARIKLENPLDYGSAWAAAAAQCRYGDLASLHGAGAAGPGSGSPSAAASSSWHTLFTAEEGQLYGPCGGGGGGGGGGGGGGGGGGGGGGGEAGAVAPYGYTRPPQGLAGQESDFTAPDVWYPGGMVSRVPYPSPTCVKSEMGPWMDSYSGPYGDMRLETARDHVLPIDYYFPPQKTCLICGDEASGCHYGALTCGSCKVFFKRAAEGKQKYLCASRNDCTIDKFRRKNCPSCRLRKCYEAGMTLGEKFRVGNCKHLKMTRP
Procedure: Prostate cancer cells 22RV1 were purchased from ATCC, the cell medium was 1640+10% FBS, and the cells were cultured in an incubator at 37° C. under 5% CO2. On day 1, the cells in an exponential phase were collected. With a 1% css-FBS phenol red-free medium, the cell suspension was adjusted to a corresponding concentration and plated into a 6-well plate at 1 mL/well and 300000 cells/well. The next day, a 1% css-FBS phenol-free medium containing the compound to be tested was added, a 1% css-FBS phenol-free medium containing 0.2% DMSO was added to one well as DMSO vehicle control, and the 6-well plate was cultured in an incubator at 37° C. under 5% CO2. After 24 h, the cells were digested with pancreatin and collected into a 1.5 mL centrifuge tube. 15 μL of RIPA lysate (containing 1× protease inhibitor cocktail) was added to each well, and the cells were lysed on ice for 15 min and then centrifuged at 12000 g at 4° C.′ for 10 min. The supernatant protein samples were collected, and protein quantification was performed by a BCA method. AR-V7 was detected using fully automatic protein expression quantitative analysis, which involved diluting the protein to be tested to 2 mg/mL, 4 μL of the diluted protein samples were added to 1 μL of 5× Master Mix (provided in the kit), and the prepared samples were denatured at 95° C. for 5 min and placed on ice for use. The primary antibodies. AR V7 (CST, 19672S) and β-actin (CST, 3700), were diluted with Antibody Diluent II (provided in the kit) at a dilution ratio of 1:10 and 1:500, respectively. The secondary antibody was a mixed goat anti-mouse and goat anti-rabbit secondary antibody in a ratio of 1:1, and the color development solution was a mixed solution of Lumino-S and Peroxide in a ratio of 1:1. The prepared reagents were successively added to an assay plate according to instructions of the kit and detected on an instrument. Western blot band processing was performed using “Compass for SW”, a fully automatic protein expression quantitative analysis software, in which western blot bands were automatically simulated based on signal values. The degradation rate of AR-V7 (4) relative to vehicle control at different compound concentrations was calculated according to formula (4), wherein AR-V7compound was the relative peak area of AR-V7 in the treated group, and AR-V7solvent was the relative peak area of AR-V7 in the vehicle control group.
DC50 calculation: the compound concentration DC50 values at which the degradation rate of AR-V7 was 50% were calculated using Graphpad software and analyzed using log (inhibitor) vs. response-Variable slope (four parameters) function according to formula (4).

[4] = tested on: Prostate cancer cells 22RV1; assay: Experiment on inhibiting 22RV1 cell proliferation (CellTiter-Glo, 7 days); assay type: cell-based; conditions: Homo sapiens, 168 h, 22RV1 cells, 7 days incubation, cells with nM printed beside the value, read-out: IC50 values for inhibition of 22RVI cells
How it was run: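 22RV1 cells at 2000/well in 1% charcoal-stripped-FBS phenol red-free medium, treated next day with compound for 7 days at 37 °C, 5% CO2. Viability by CellTiter-Glo luminescence; inhibition relative to DMSO vehicle, IC50 from dose-response fit.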

bioavailability [1] [%] | AUC(0-t) [1] [ng·h/mL] | DC50 [3] [µM] | IC50 [4] [nM] | Structure (SMILES) | degradation effect on AR-FL (Full-length AR (AR-FL)) | degradation effect on AR-Vs [2]
51.2 ± 9.7 | 29400 ± 5590 | – | – | CC(C)(C(=O)Nc1cnc(C#N)c(C(F)(F)F)c1)n1cc(C#CC2CN(c3ccc4c(c3)C(=O)N(C3CCC(=O)NC3=O)C4=O)C2)cn1 (centres unmarked) [Compound 4, N-(6-cyano-5-(trifluoromethyl)pyridin-3-yl)-2-(4-((1-(2-(2,6-dioxopiperidin-3-yl)-1,3-dioxoisoindolin-5-yl)azetidin-3-yl)ethynyl)-1H-pyrazol-1-yl)-2-methylpropanamide] | significant degradation effect | significant degradation effect
37.9 ± 2.2 | 12000 ± 711 | < 0.5 | < 50 | CC(C)(C(=O)Nc1ccc(C(F)(F)F)cc1-c1nccs1)n1cc(C#CC2CN(c3ccc4c(c3)C(=O)N(C3CCC(=O)NC3=O)C4=O)C2)cn1 (centres unmarked) [Compound 155, 2-(4-((1-(2-(2,6-dioxopiperidin-3-yl)-1,3-dioxoisoindolin-5-yl)azetidin-3-yl)ethynyl)-1H-pyrazol-1-yl)-2-methyl-N-(2-(thiazol-2-yl)-4-(trifluoromethyl)phenyl) propanamide] | – | –
